The text below walks through data of ChEMBL document CHEMBL1201862, “PubChem BioAssay data set” (2004).

Some test systems named below: A498; BT-549; CAKI-1; COLO 205; HCT-15; HOP-92; Hs-578T; K562; KM12; NCI-H226; NCI-H522; OVCAR-3; OVCAR-4; OVCAR-8; PC-3; SK-OV-3; SNB-75; SW-620; TK-10; SN12C.
Assay in all cases: NCI tumour cell line growth inhibition, 48 h

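Tested at 5 concentrations; 48 h exposure; 96-well plates; endpoints linearly interpolated, else capped at highest concentration. At the GI50, growth is halved.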 Active and inactive are the calls of the source. Cut-off read from the data, not from the text of the source: active = GI50 up to about 1.1 µM and inactive = higher. Where only a bound is given, the exact number is not on record here.

In the case of `COc1ccc(OC)c2c1C(=O)C(O)=C(Cl)C2=O`, the GI50 in the assay on A498 is > 100 µM (inactive); with BT-549 it was > 100 µM (inactive); in the assay with CAKI-1, > 100 µM (inactive); in the assay with COLO 205, > 100 µM (inactive); in the assay with HCT-15, > 100 µM; in the assay with HOP-92 it was > 100 µM (inactive). Also, the GI50 with Hs-578T, in the assay on K562, in the assay with KM12, with NCI-H226, with NCI-H522 and in the assay on OVCAR-3 was > 100 µM (inactive) in each case. Besides, the GI50 in the assay with OVCAR-4, with OVCAR-8, in the assay with PC-3, in the assay with SK-OV-3, with SNB-75 and in the assay with SW-620 was > 100 µM (inactive) in each case. For the same compound, the GI50 with TK-10 was > 100 µM (inactive).
As to `CN(C)CCCNC(=O)CCNC(=O)c1cc(NC(=O)c2cc(NC(=O)c3cc(NC(=O)c4nccn4C)cn3C)cn2C)cn1C`, the GI50 was > 100 µM (inactive) in the assay on A498; > 100 µM (inactive) in the assay with BT-549; > 100 µM (inactive) in the assay on CAKI-1; 20 µM (inactive) with COLO 205; > 100 µM with HCT-15; > 100 µM (inactive) with HOP-92. The GI50 in the assay on Hs-578T was > 100 µM (inactive); with K562, > 100 µM (inactive); in the assay with KM12, > 100 µM (inactive); in the assay on NCI-H226, > 100 µM (inactive); in the assay on NCI-H522 it was 5.47 µM (inactive); in the assay on OVCAR-3, > 78.2 µM (inactive). The GI50 in the assay on OVCAR-8 was > 100 µM (inactive); in the assay on PC-3, > 100 µM (inactive); in the assay on SK-OV-3, > 100 µM (inactive); with SN12C, > 100 µM (inactive); with SNB-75, 54.7 µM (inactive); in the assay with SW-620, > 100 µM (inactive). Also, in the assay on TK-10, the GI50 was > 100 µM (inactive).
Turning to `COC(=O)C1Cc2cc3c(cc2C1=O)CCC3` (centres undefined), the GI50 with A498 was > 100 µM (inactive); with BT-549, > 100 µM (inactive); in the assay on CAKI-1, > 100 µM (inactive); in the assay on COLO 205, > 100 µM (inactive); in the assay with HCT-15 it was > 100 µM; in the assay on Hs-578T it was > 100 µM (inactive). In addition, the GI50 in the assay on K562 is 43 µM (inactive); in the assay with KM12, > 100 µM (inactive); in the assay with NCI-H226, > 100 µM (inactive); in the assay on NCI-H522, > 100 µM (inactive); in the assay with OVCAR-3, > 100 µM (inactive); in the assay with OVCAR-4 it was 42.1 µM (inactive). For the same compound, the GI50 with OVCAR-8 is > 100 µM (inactive); in the assay with PC-3 it was > 100 µM (inactive); in the assay with SK-OV-3, > 100 µM (inactive); with SN12C, 90.6 µM (inactive); in the assay with SNB-75 it was > 100 µM (inactive); with SW-620 it was > 100 µM (inactive). The GI50 in the assay on TK-10 is > 100 µM (inactive).
Regarding `C=CCN1C(=O)CC(=O)N(NC2=NNC3(C(=O)N2)c2ccccc2-c2ccccc23)C1=S`, the GI50 was 34.8 µM (inactive) in the assay on A498; 45 µM (inactive) in the assay on BT-549; 48.3 µM (inactive) in the assay with CAKI-1; 21.7 µM (inactive) in the assay with COLO 205; 35.7 µM in the assay on HCT-15; 15.4 µM (inactive) with HOP-92. Further, the GI50 in the assay with Hs-578T is 13.6 µM (inactive); with K562, 31.5 µM (inactive); in the assay on NCI-H226, 13.8 µM (inactive); in the assay with NCI-H522, 32.6 µM (inactive); with OVCAR-3 it was 28.4 µM (inactive); with OVCAR-4, 29.4 µM (inactive). In addition, the GI50 with OVCAR-8 was 29.2 µM (inactive); in the assay with PC-3, 23.9 µM (inactive); in the assay on SK-OV-3, 42.2 µM (inactive); in the assay with SN12C, 37.2 µM (inactive); in the assay on SNB-75, 48.2 µM (inactive); with SW-620, 38.5 µM (inactive). The GI50 in the assay with TK-10 was 64.1 µM (inactive).
Consider `Cc1ccc(S(=O)(=O)C2=Cc3ccccc3C2(O)c2ccccc2)cc1` (centres undefined), for which the GI50 was > 10 µM (inactive) in the assay with A498; 24 µM (inactive) in the assay on BT-549; 24.5 µM (inactive) in the assay on COLO 205; 32.7 µM with HCT-15; 22.6 µM (inactive) in the assay with Hs-578T; 25.1 µM (inactive) in the assay on K562. For the same compound, the GI50 in the assay with KM12 is 21.4 µM (inactive); with NCI-H226, 29.3 µM (inactive); in the assay on NCI-H522 it was 21.5 µM (inactive); in the assay on OVCAR-8, 22.8 µM (inactive); in the assay on PC-3 it was 27.4 µM (inactive); in the assay with SK-OV-3, 29.3 µM (inactive). Also, the GI50 with SN12C was 17.4 µM (inactive); in the assay on SNB-75, 31 µM (inactive); in the assay on SW-620 it was 29.8 µM (inactive); in the assay on TK-10 it was 35.3 µM (inactive).
Consider `Cc1cc(=O)[nH]c2c1C(=O)c1c(C)cc(=O)n(C)c1C2=O`, for which the GI50 in the assay on A498 is 0.214 µM (active); with BT-549, 0.0228 µM (active); with CAKI-1, 0.0678 µM (active); in the assay with COLO 205, 0.0162 µM (active); in the assay on HCT-15, 0.123 µM; with Hs-578T, 0.0262 µM (active). Also, the GI50 in the assay on K562 was 0.122 µM (active); in the assay on KM12, 0.0678 µM (active); in the assay with NCI-H226, 0.0293 µM (active); in the assay with NCI-H522, 0.046 µM (active); in the assay on OVCAR-3 it was 0.0508 µM (active); in the assay on OVCAR-4 it was 0.195 µM (active). Moreover, the GI50 in the assay on OVCAR-8 was 0.0832 µM (active); in the assay on PC-3, 0.157 µM (active); in the assay on SK-OV-3 it was 0.182 µM (active); in the assay with SN12C, 0.074 µM (active); in the assay with SNB-75, 0.0176 µM (active); in the assay with SW-620, 0.0419 µM (active). Further, in the assay on TK-10, the GI50 was 0.192 µM (active).
With `N#C/C(N)=C(\C#N)NC(=O)C(=O)N/C(C#N)=C(\N)C#N`, the GI50 in the assay on A498 is > 100 µM (inactive); in the assay with BT-549 it was > 100 µM (inactive); in the assay with CAKI-1, > 100 µM (inactive); in the assay with COLO 205 it was > 100 µM (inactive); in the assay with HCT-15 it was > 100 µM; in the assay on HOP-92, > 100 µM (inactive). The GI50 is > 100 µM (inactive) in the assay with Hs-578T; > 100 µM (inactive) in the assay with K562; > 100 µM (inactive) in the assay with KM12; > 100 µM (inactive) in the assay on NCI-H226; > 100 µM (inactive) in the assay on NCI-H522; 13 µM (inactive) with OVCAR-3. The GI50 in the assay on OVCAR-4 is > 100 µM (inactive); in the assay with OVCAR-8 it was > 100 µM (inactive); in the assay with PC-3 it was > 100 µM (inactive); in the assay with SN12C it was > 100 µM (inactive); in the assay on SNB-75, 29.3 µM (inactive); with SW-620, > 100 µM (inactive). The GI50 in the assay with TK-10 is > 100 µM (inactive).
For the compound `Cc1cc(C)nc(NC(=S)Nc2ccc(Cl)cc2)c1`, the GI50 in the assay on A498 was 48.3 µM (inactive); with BT-549, > 100 µM (inactive); in the assay with CAKI-1, 60.5 µM (inactive); in the assay with COLO 205, > 100 µM (inactive); in the assay on HCT-15, > 100 µM; with Hs-578T, 21.5 µM (inactive). For the same compound, the GI50 in the assay with K562 was > 100 µM (inactive); with KM12, 53.6 µM (inactive); in the assay with NCI-H226, 27.8 µM (inactive); in the assay on NCI-H522 it was 1.37 µM (inactive); in the assay with OVCAR-3, > 100 µM (inactive); with OVCAR-4, 18.4 µM (inactive). The GI50 was 20.1 µM (inactive) in the assay with OVCAR-8; > 100 µM (inactive) with PC-3; 23.4 µM (inactive) in the assay on SK-OV-3; > 100 µM (inactive) in the assay on SN12C; 11.9 µM (inactive) in the assay with SNB-75; > 100 µM (inactive) in the assay on SW-620. Further, in the assay with TK-10, the GI50 is 33.7 µM (inactive).
As for `Nc1nc(N)c(C2=CCNCC2)c(=O)[nH]1`, the GI50 in the assay on A498 was > 100 µM (inactive); with BT-549 it was > 100 µM (inactive); with CAKI-1, > 100 µM (inactive); with COLO 205, > 100 µM (inactive); in the assay on HCT-15 it was > 100 µM; in the assay on HOP-92, > 100 µM (inactive). Also, the GI50 in the assay on Hs-578T, with K562, with KM12, in the assay on NCI-H226, with NCI-H522 and with OVCAR-3 was > 100 µM (inactive) each time. Also, the GI50 with OVCAR-4, in the assay on OVCAR-8, in the assay on PC-3, in the assay on SK-OV-3, in the assay on SN12C and in the assay on SNB-75 was > 100 µM (inactive) throughout. In addition, in the assay on SW-620, the GI50 was > 100 µM (inactive).
In the case of `OC(CCN1CCN(CCOC(c2ccccc2)c2ccccc2)CC1)c1ccccc1` (centres undefined), the GI50 with A498 was 2.4 µM (inactive); in the assay on BT-549, 23.8 µM (inactive); with CAKI-1, 32 µM (inactive); with COLO 205, 14.5 µM (inactive); in the assay on HCT-15 it was 18.5 µM; in the assay on HOP-92, 22.5 µM (inactive). Besides, the GI50 in the assay with Hs-578T is 21.1 µM (inactive); with KM12, 20.9 µM (inactive); with NCI-H226 it was 27.9 µM (inactive); with NCI-H522, 17.4 µM (inactive); in the assay with OVCAR-3, 25.6 µM (inactive); in the assay on OVCAR-4, 30.1 µM (inactive). Further, the GI50 in the assay on OVCAR-8 is 17.7 µM (inactive); in the assay with PC-3, 21.5 µM (inactive); with SK-OV-3, 35.8 µM (inactive); with SN12C, 29.1 µM (inactive); in the assay on SNB-75, 40.9 µM (inactive); with SW-620, 31.1 µM (inactive). Also, the GI50 in the assay with TK-10 was 22.3 µM (inactive).
As to `CN(C)/C=C/c1nnc([N+](=O)[O-])s1`, the GI50 in the assay with A498 was 32 µM (inactive); in the assay with BT-549, 17.9 µM (inactive); in the assay on CAKI-1, 18.2 µM (inactive); in the assay with COLO 205, 3.58 µM (inactive); in the assay with HCT-15, 12 µM; with Hs-578T it was 14.5 µM (inactive). For the same compound, the GI50 was 7.73 µM (inactive) in the assay with KM12; 20.5 µM (inactive) in the assay on NCI-H226; 1.66 µM (inactive) with NCI-H522; 2.65 µM (inactive) in the assay on OVCAR-3; 17.1 µM (inactive) in the assay on OVCAR-8; 4.95 µM (inactive) in the assay with PC-3. Also, the GI50 with SK-OV-3 was 20.7 µM (inactive); in the assay with SN12C it was 18.8 µM (inactive); in the assay on SNB-75, 23.9 µM (inactive); in the assay with SW-620 it was 16.8 µM (inactive); in the assay with TK-10, 25.9 µM (inactive).
